Molecular target: T1, Activated human p38α (Homo sapiens, UniProt Q16539)
T1 construct: purchased Upstate Biotechnology Inc. 14-251
Assay: p38MAP kinase inhibition test
Assay type: biochemical
Conditions: at a concentration of 1 μmol/L; substrate myelin basic protein, ATP 20 μmol/L, [γ-32P]ATP; read-out: enzyme inhibitory activity
Method: p38MAP Kinase Inhibition Test
Activated human p38α was purchased from Upstate Biotechnology Inc. (Catalog No. 14-251). P38MAP kinase inhibitory activity was measured by the procedure described below with reference to the method by Whitmarsh A. J. and Davis R. J. [Methods in Enzymology (Method. Enzymol.), vol. 332, p. 319-336 (2001)]. As the substrate to be phosphorylated, a myelin basic protein (Catalog No. 133-13493, Wako Pure Chemical Industries, Ltd.) (20 μg/assay) was used. The reaction was carried out in a solution containing 3-[N-Morpholino]propanesulfonic acid (MOPS) (20 mmol/L, pH 7.2), β-glycerophosphoric acid (Sigma Corp.) (25 mmol/L), ethylenebis(oxyethylenenitrilo)tetraacetic acid (EGTA) (1 mmol/L), […] (Sigma-Aldrich Corp.) (1 mmol/L), dithiothreitol (DTT, Wako Pure Chemical Industries, Ltd.) (1 mmol/L), adenosine 5′-triphosphate (ATP, Sigma Corp.) (20 μmol/L), and MgCl2 (18.75 mmol/L) (total 40 μL/assay). The reaction was started by adding human p38α and [γ-^32P]ATP (1 μCi/assay), and incubation was performed at 30° C. for 15 minutes. The reaction was terminated by adding 4.5% v/v phosphoric acid (10 μL/well). Then, 45 μL of the reaction mixture was adsorbed onto phosphocellulose paper (p81 paper, Code No. 3698023, Whatman International, Maidstone, UK). The phosphocellulose paper was washed with 0.75% v/v phosphoric acid. Then, the radioactivity of the phosphorylated myelin basic protein ([^32P]) remaining on the phosphocellulose paper was measured with a scintillation counter (TRI-CARB2700TR, PerkinElmer, Boston, Mass., USA) using program No. 27 (data mode: cpm, measurement time: 1 min, Background substract: none, energy range measured: LL 0.0-UL 2000) or a scintillation counter (LS6500, BeckmanCoulter, Fullerton, Calif., USA) using program No. 17 (data mode: cpm, measurement time: 1 min, Background substract: none, energy range measured: high). The test compound was dissolved in DMSO before addition.

T1 sequence (Q16539 whole entry): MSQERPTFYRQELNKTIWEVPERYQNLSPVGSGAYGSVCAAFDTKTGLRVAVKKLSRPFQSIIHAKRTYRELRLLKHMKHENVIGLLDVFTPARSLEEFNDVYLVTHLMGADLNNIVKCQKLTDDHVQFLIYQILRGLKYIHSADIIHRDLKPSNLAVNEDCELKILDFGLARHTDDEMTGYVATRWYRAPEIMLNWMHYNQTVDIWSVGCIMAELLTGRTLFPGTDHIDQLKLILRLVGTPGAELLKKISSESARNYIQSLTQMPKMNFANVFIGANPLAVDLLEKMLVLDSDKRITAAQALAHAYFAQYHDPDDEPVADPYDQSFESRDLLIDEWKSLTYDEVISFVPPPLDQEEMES

inhibition at 1 µM [%] | SMILES
≥ 50 | COCOc1c(-c2ccccc2Cl)cc2cnc(NC(C)C)nc2c1-c1cccc(C(=O)O)c1 [Compound 93, 8-(3-Carboxyphenyl)-6-(2-chlorophenyl)-2-isopropylamino-7-(methoxymethyloxy)quinazoline]
≥ 50 | CC(C)Nc1ncc2cc(-c3ccccc3Cl)c(O)c(-c3cccc(C(=O)O)c3)c2n1 [Compound 94, 8-(3-Carboxyphenyl)-6-(2-chlorophenyl)-7-hydroxy-2-(isopropylamino)quinazoline]
≥ 50 | CC(C)Nc1ncc2cc(-c3ccccc3Cl)c(O)c(-c3ccc(CC(=O)O)cc3)c2n1 [Compound 95, 8-[4-(Carboxymethyl)phenyl]-6-(2-chlorophenyl)-7-hydroxy-2-(isopropylamino)quinazoline]
≥ 50 | CC(C)Nc1ncc2cc(-c3ccccc3Cl)c(O)c(-c3cccc(CC(=O)O)c3)c2n1 [Compound 96, 8-[3-(Carboxymethyl)phenyl]-6-(2-chlorophenyl)-7-hydroxy-2-(isopropylamino)quinazoline]
≥ 50 | CC(C)Nc1ncc2cc(-c3ccccc3Cl)c(O)c(-c3ccccc3Cl)c2n1 [Compound 98, 6,8-Di(2-chlorophenyl)-7-hydroxy-2-(isopropylamino)quinazoline]
≥ 50 | COCOc1c(-c2ccccc2Cl)cc2cnc(NC(C)C)nc2c1-c1ccccc1F [Compound 99, 6-(2-Chlorophenyl)-8-(2-fluorophenyl)-2-isopropylamino-7-(methoxymethyloxy)quinazoline]
≥ 50 | CC(C)Nc1ncc2cc(-c3ccccc3Cl)c(O)c(-c3ccccc3F)c2n1 [Compound 100, 6-(2-Chlorophenyl)-8-(2-fluorophenyl)-7-hydroxy-2-(isopropylamino)quinazoline]
≥ 50 | CC(C)Nc1ncc2cc(-c3ccccc3Cl)c(O)c(-c3c(F)cccc3F)c2n1 [Compound 102, 6-(2-Chlorophenyl)-8-(2,6-difluorophenyl)-7-hydroxy-2-(isopropylamino)quinazoline]
≥ 50 | COc1cc2nc(NC(C)C)ncc2cc1C(=O)c1ccccc1 [Compound 109, 6-Benzoyl-2-isopropylamino-7-methoxyquinazoline]
≥ 50 | CC(C)Nc1ncc2cc(C(=O)c3ccccc3)c(O)cc2n1 [Compound 110, 6-Benzoyl-7-hydroxy-2-(isopropylamino)quinazoline]
≥ 50 | CCOC(=O)c1oc2c(-c3ccccc3Cl)cc3cnc(NC(C)C)nc3c2c1C [Compound 111, 6-(2-Chlorophenyl)-8-ethoxycarbonyl-2-isopropylamino-9-methylfuro[2,3-h]quinazoline]
≥ 50 | CC(C)Nc1ncc2cc(-c3ccccc3Cl)c3oc(C(C)(C)O)cc3c2n1 [Compound 112, 6-(2-Chlorophenyl)-8-(1-hydroxy-1-methylethyl)-2-(isopropylamino)furo[2,3-h]quinazoline]
≥ 50 | COc1cc2nc(NC(C)C)ncc2cc1C(=O)c1ccccc1C [Compound 113, 2-Isopropylamino-7-methoxy-6-(2-methylbenzoyl)quinazoline]
≥ 50 | COc1cc2nc(NC(C)C)ncc2cc1C(=O)c1cccc(C)c1 [Compound 114, 2-Isopropylamino-7-methoxy-6-(3-methylbenzoyl)quinazoline]
≥ 50 | COc1cc2nc(NC(C)C)ncc2cc1C(=O)c1cccc(F)c1 [Compound 116, 6-(3-Fluorobenzoyl)-2-isopropylamino-7-methoxyquinazoline]
≥ 50 | COc1cc2nc(NC(C)C)ncc2cc1C(=O)c1cccc(Cl)c1 [Compound 117, 6-(3-Chlorobenzoyl)-2-isopropylamino-7-methoxyquinazoline]
≥ 50 | Cc1cccc(C(=O)c2cc3cnc(NC(C)C)nc3cc2O)c1 [Compound 118, 7-Hydroxy-2-isopropylamino-6-(3-methylbenzoyl)quinazoline]
≥ 50 | Cc1ccccc1C(=O)c1cc2cnc(NC(C)C)nc2cc1O [Compound 119, 7-Hydroxy-2-isopropylamino-6-(2-methylbenzoyl)quinazoline]
≥ 50 | CC(C)Nc1ncc2cc(C(=O)c3cccc(Cl)c3)c(O)cc2n1 [Compound 120, 6-(3-Chlorobenzoyl)-7-hydroxy-2-(isopropylamino)quinazoline]
≥ 50 | COc1cccc(C(=O)c2cc3cnc(NC(C)C)nc3cc2O)c1 [Compound 121, 7-Hydroxy-2-isopropylamino-6-(3-methoxybenzoyl)quinazoline]

inhibition at 1 µM [%] | SMILES
≥ 50 | COc1ccccc1C(=O)c1cc2cnc(NC(C)C)nc2cc1O [Compound 122, 7-Hydroxy-2-isopropylamino-6-(2-methoxybenzoyl)quinazoline]
≥ 50 | CC(C)Nc1ncc2cc(C(=O)c3cccc(O)c3)c(O)cc2n1 [Compound 123, 7-Hydroxy-6-(3-hydroxybenzoyl)-2-(isopropylamino)quinazoline]
≥ 50 | CC(C)Nc1ncc2cc(C(=O)c3ccccc3Cl)c(O)cc2n1 [Compound 125, 6-(2-Chlorobenzoyl)-7-hydroxy-2-(isopropylamino)quinazoline]
≥ 50 | CC(C)Nc1ncc2cc(C(=O)c3ccccc3F)c(O)cc2n1 [Compound 126, 6-(2-Fluorobenzoyl)-7-hydroxy-2-(isopropylamino)quinazoline]
≥ 50 | CC(C)Nc1ncc2cc(C(=O)c3ccc(F)c(Cl)c3)c(O)cc2n1 [Compound 127, 6-(3-Chloro-4-fluorobenzoyl)-7-hydroxy-2-(isopropylamino)quinazoline]
≥ 50 | CC(C)Nc1ncc2cc(C(=O)c3ccc(F)c(F)c3)c(O)cc2n1 [Compound 129, 6-(3,4-Difluorobenzoyl)-7-hydroxy-2-(isopropylamino)quinazoline]
≥ 50 | CC(C)Nc1ncc2cc(C(=O)c3ccc(F)cc3)c(O)cc2n1 [Compound 131, 6-(4-Fluorobenzoyl)-7-hydroxy-2-(isopropylamino)quinazoline]
≥ 50 | CC(C)Nc1ncc2cc(C(=O)c3cccc(F)c3)c(O)cc2n1 [Compound 132, 6-(3-Fluorobenzoyl)-7-hydroxy-2-(isopropylamino)quinazoline]
≥ 50 | CC(C)Nc1ncc2cc(C(=O)c3cc(F)cc(F)c3)c(O)cc2n1 [Compound 134, 6-(3,5-Difluorobenzoyl)-7-hydroxy-2-(isopropylamino)quinazoline]
≥ 50 | CC[C@H](C)Nc1ncc2cc(C(=O)c3cccc(C)c3)c(O)cc2n1 [Compound 135, (S)-2-(sec-Butylamino)-7-hydroxy-6-(3-methylbenzoyl)quinazoline]
≥ 50 | CS(=O)(=O)N1CCC(Nc2ncc3cc(C(=O)c4ccccc4)c(O)cc3n2)CC1 [Compound 136, 6-Benzoyl-7-hydroxy-2-[1-(methylsulfonyl)piperidin-4-ylamino]quinazoline]
≥ 50 | CCOC(=O)N1CCC(Nc2ncc3cc(C(=O)c4ccccc4)c(O)cc3n2)CC1 [Compound 137, 6-Benzoyl-2-[1-(ethoxycarbonyl)piperidin-4-ylamino]-7-hydroxyquinazoline]
≥ 50 | O=C(c1ccccc1)c1cc2cnc(NC3CCOCC3)nc2cc1O [Compound 138, 6-Benzoyl-7-hydroxy-2-(4-tetrahydropyranylamino)quinazoline]
≥ 50 | N[C@H]1CC[C@H](Nc2ncc3cc(C(=O)c4ccccc4)c(O)cc3n2)CC1 [Compound 139, 2-(trans-4-Aminocyclohexylamino)-6-benzoyl-7-hydroxyquinazoline]
≥ 50 | Cc1cccc(C)c1Nc1ncc2cc(C(=O)c3ccccc3)c(O)cc2n1 [Compound 140, 6-Benzoyl-2-(2,6-dimethylanilino)-7-hydroxyquinazoline]
≥ 50 | O=C(c1ccccc1)c1cc2cnc(Nc3c(Cl)cccc3Cl)nc2cc1O [Compound 141, 6-Benzoyl-2-(2,6-dichloroanilino)-7-hydroxyquinazoline]
≥ 50 | CCS(=O)(=O)N1CCC(Nc2ncc3cc(-c4ccccc4Cl)c(OC)cc3n2)CC1 [Compound 142, 6-(2-Chlorophenyl)-2-[1-(ethylsulfonyl)piperidin-4-ylamino]-7-methoxyquinazoline]
≥ 50 | COc1cc2nc(NC3CCN(S(=O)(=O)C(C)C)CC3)ncc2cc1-c1ccccc1Cl [Compound 143, 6-(2-Chlorophenyl)-2-[1-(isopropylsulfonyl)piperidin-4-ylamino]-7-methoxyquinazoline]
≥ 50 | COc1cc2nc(NCC3CCN(S(C)(=O)=O)CC3)ncc2cc1-c1ccccc1Cl [Compound 144, 6-(2-Chlorophenyl)-7-methoxy-2-[1-(methylsulfonyl)piperidin-4-ylmethylamino]quinazoline]
